Measurements: US20190112208A1, “COMPOSITIONS EXHIBITING SYNERGY IN BIOFILM CONTROL” (SOLENIS TECHNOLOGIES, L.P., priority 2017, published 2019)
Like-named read-outs stand apart in the source and are kept apart here.

System: Pseudomonas putida biofilms
Type: cell-based
Method: In this work the efficacy of the agents alone and in combination were determined by measuring the number of viable cells in model biofilms remaining after treatment. The Minimum Biofilm Eradication value (MBEC) is defined as a 95% reduction in the number of viable cells compared to the untreated control. The relatively non-toxic dispersants are unable to reach that level of killing with physically possible concentrations, thus for those agents the MBEC is considered the highest value tested. Since this value is used as the divisor in the synergy index equation this highest tested value is actually an underestimate of the MBEC and thus synergy index values are also […].
Dose response studies were performed to determine the Minimum Biofilm Eradication Concentration (MBEC) for monochloramine and SDBS alone. The MBEC is defined as the concentration of agent that reduces the viable biofilm population by 95% of the untreated control value as measured by viable plate counts. Experiments were then performed to determine the result of combining the two agents, oxidizing biocide monochloramine and dispersant SDBS, on biofilm populations. The experiments examined three concentrations of monochloramine with four concentrations of SDBS. The SDBA used in the examples was Bio-Soft™ D-4 (Stepan Company, Northfield, Ill.).
M9YG media is a simple minimal salt medium supplemented with 500 mg/L glucose and 0.01% yeast extract. The salts composition is intended to mimic a typical cooling tower water composition. The composition of the media is made using the following procedure: 5XM9 salt composition is mixed using 64 gm Na2HPO4.7H2O, 15 grams KH2PO4, 2.5 gm NaCl and 5 grams NH4Cl in one liter of water. This is divided into 200 ml aliquots and sterilized (by autoclave). To 750 ml of sterile deionized water is added the sterile supplement solutions while stirring. A white precipitate will appear on addition of the CaCl2 but will dissolve with stirring. Supplement solution is 200 ml of 5XM9 composition, 2 ml of 1M MgSO4, 0.1 ml of 1M CaCl2, 20 ml of 20% glucose, 1 ml of 10% yeast extract, and enough water to make 1000 ml of solution. […]
Biofilms were grown on stainless steel 316 coupons in a CDC Biofilm reactor using M9YG minimal salts growth media for a period of twenty-four hours. […] Viable cells released into the fluid were then determined by a plating method.
Synergy indices were calculated as described in Kull et al. as in example 1.
Dose response studies were performed to determine the Minimum Biofilm Eradication Concentration (MBEC) for monochloramine/dichloramine blend (MCA/DCA) and SDBS alone. The MBEC is defined as the concentration of agent that reduces the viable biofilm population by 95% of the untreated control value as measured by viable plate counts. […]

## NCl [MCA, monochloramine]
Example 1, 20 mg/L MCA alone
  % Biofilm reduction: 93.58%
Example 1, 20 mg/L MCA alone, listed as monochloramine
  % Biofilm reduction: greater than 90%

## Sodium dodecylbenzenesulfonates [SDBS]
Example 1, 312 mg/L SDBS alone
  % Biofilm reduction: 48.62%
Example 2, 312 mg/L SDBS alone
  % Biofilm reduction: 84.58%
